Here are results for 19 compounds from patent publication EP4585599A1, “NITROGEN-CONTAINING FUSED RING COMPOUND, INTERMEDIATE THEREOF, PREPARATION METHOD THEREFOR AND USE THEREOF” (Hangzhou Synrx Therapeutics Biomedical Technology Co., Ltd., priority 2022, dated 2024).

The structures appear in SMILES notation. Like-named read-outs stand apart in the source and are kept apart here.

The term IC50 denotes the concentration that inhibits the measured activity by half.

Assay [1] can be described thus: cells. The conditions noted are these: Homo sapiens, DLD-1, 240 h.
Assay [2] deals with T1, helicase domain of the Pol θ protein (Homo sapiens, UniProt O75417).
T1 construct: The helicase domain of the Pol θ protein was purified from insect protein expression system; made in house; host or cells: insect protein expression system
T1 sequence (O75417 102-554 limits assumed): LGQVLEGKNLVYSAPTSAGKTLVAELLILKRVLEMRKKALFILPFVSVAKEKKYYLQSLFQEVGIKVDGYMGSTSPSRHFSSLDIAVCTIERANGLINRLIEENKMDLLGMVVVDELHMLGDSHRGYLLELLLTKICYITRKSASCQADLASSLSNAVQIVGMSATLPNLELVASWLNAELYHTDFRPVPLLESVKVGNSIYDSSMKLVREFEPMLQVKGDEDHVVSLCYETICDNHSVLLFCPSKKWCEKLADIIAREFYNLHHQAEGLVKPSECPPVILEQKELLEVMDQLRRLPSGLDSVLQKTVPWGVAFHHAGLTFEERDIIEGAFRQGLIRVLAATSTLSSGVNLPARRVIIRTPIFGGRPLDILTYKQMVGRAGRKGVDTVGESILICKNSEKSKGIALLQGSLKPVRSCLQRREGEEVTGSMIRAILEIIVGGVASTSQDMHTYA
Kind of assay: Biochemical Activity Assay (ADP Glo Assay) of Pol θ inhibitor, ATPase activity. For orientation: ADP-Glo first removes unused ATP, then detects ADP through luciferase.

Setting [3] is: read-out: Cell viability assay IC50 (nM), CTG assay, CellTiter Glo, read on Day 10, cell line not given.
Where [4] appears, read: ADP-Glo assay, ATPase activity of Pol θ helicase domain, ssDNA substrate, read-out: Biochemical assay IC50.

In the case of `COc1cnc(Cl)cc1-c1cc(C)ncc1C(=O)Nc1nc2cnc(C3=CC[C@@H](O)CC3)cc2s1` [Example 115, (S) -2'-chloro-N-(6-(4-hydroxycyclohex-1-en-1-yl)thiazolo[4,5-c]pyridin-2-yl)-5'-methoxy-6-methyl-[4,4'-bipyridine]-3-c arboxamide], the concentration for half-maximal inhibition (IC50) was 2.61 nM in assay [1] (setting [3]); under 100 nM in assay [1] (read-out: Cell viability assay IC50 (nM), CTG on Day 10, cell line not given (method: DLD1 and DLD1^-/- cells)); 3.21 nM in assay [2] (setting [4]); under 50 nM in assay [2] (ADP-Glo, ssDNA substrate, 60 min at room temperature, read-out: Biochemical assay IC50).
For the compound `COc1cnc(Cl)cc1-c1cc(C)ncc1C(=O)Nc1nc2ccc(N3CCC(O)C(C)(C)C3)nc2s1` (stereo not shown) [Example 116, 2'-chloro-N-(5-(4-hydroxy-3,3-dimethylpiperidin-1-yl)thiazol[5,4-b]pyridin-2-yl)-5'-me thoxy-6-methyl-[4,4'-bipyridine]-3-carboxamide], the 50% inhibitory concentration (IC50) stood at 36.9 nM in assay [1] (read-out: Cell viability assay IC50 (nM)) and 10.3 nM in assay [2] (Biochemical assay IC50 (nM)).
Consider `COc1cnc(Cl)cc1-c1cc(C)ncc1C(=O)Nc1nc2ncc(N(C)CCC(C)O)cc2s1` (stereo not shown) [Example 117], for which the half-inhibitory concentration (IC50) was found to be 799 nM in assay [1] (setting [3]) and 7.28 nM in assay [2] (setting [4]).
Taken in the same sequence, the figures for `COc1cnc(Cl)cc1-c1cc(C)ncc1C(=O)Nc1nc2ncc(N3CCC(O)C(C)(C)C3)cc2s1` (stereo not shown) [Example 118] were 23 nM and 4.02 nM.
The matching figures for `COc1cnc(Cl)cc1-c1cc(C)ncc1C(=O)Nc1nc2cc(F)c(N3CCC(O)CC3)cc2s1` [Example 119]: 10.7 nM and 5.46 nM.
The matching figures for `COc1cnc(Cl)cc1-c1cc(C)ncc1C(=O)Nc1nc2c(C#N)cc(N3CCC(O)CC3)cc2s1` [Example 120]: 14.2 nM and 5.93 nM.
On to `COc1cnc(Cl)cc1-c1cc2cncn2cc1C(=O)Nc1nc2cnc(N3CCC(O)CC3)cc2s1` [Example 121], for which the half-maximal inhibitory concentration (IC50) in assay [1] (setting [3]) is 2510 nM; in assay [2] (setting [4]), 51.9 nM.
In the case of `COc1cnc(Cl)cc1-c1cc(C(F)(F)F)ncc1C(=O)Nc1nc2ccc(N3CCC(O)CC3)nc2s1` [Example 122], the IC50 in assay [1] (setting [3]) came to 2710 nM; in assay [2] (setting [4]), 145 nM.
The matching figures for `COc1cnc(Cl)cc1-c1cc(C)ncc1C(=O)Nc1nc2c(F)nc(N3CCC(O)CC3)cc2s1` [Example 123]: 24.2 nM and 10.5 nM.
The matching figures for `COc1cnc(Cl)cc1-c1c(C(=O)Nc2nc3ccc(N4CCC(O)CC4)nc3s2)cnc(C)c1F` [Example 124]: 584 nM and 163 nM.
Take `COc1cnc(Cl)c(F)c1-c1cc(C)ncc1C(=O)Nc1nc2cc(F)c(N3CCC(O)CC3)nc2s1` [Example 125]: the figures for the concentration for half-maximal inhibition (IC50) in assay [1] (setting [3]) and in assay [2] (setting [4]) were 3.98 nM and 10 nM, respectively.
Taken in the same sequence, the figures for `COc1cnc(Cl)cc1-c1cc(C)ncc1C(=O)Nc1nc2cc(F)c(N3CCC(O)CC3)nc2s1` [Example 126] were 9.26 nM and 7.35 nM.
The matching figures for `COc1cnc(Cl)c(F)c1-c1cc(C)ncc1C(=O)Nc1nc2ncc(N3CCC(O)CC3)cc2s1` [Example 127]: 15.8 nM and 3.52 nM.
The matching figures for `COc1cnc(Cl)cc1-c1cc(C)ncc1C(=O)Nc1nc2ccc(N3CCC(CO)CC3)nc2s1` [Example 128]: 39.8 nM and 9.69 nM.
For `COc1cnc(Cl)c(F)c1-c1cc(C)ncc1C(=O)Nc1nc2ccc(N3CCC(CO)CC3)nc2s1` [Example 129], the results for the half-maximal inhibitory concentration (IC50) in assay [1] (setting [3]) and in assay [2] (setting [4]) were 9.68 nM and 8.06 nM, respectively.
Taken in the same sequence, the figures for `Cc1cc(-c2cc(Cl)ncc2OC(F)F)c(C(=O)Nc2nc3ccc(N4CCC(O)CC4)nc3s2)cn1` [Example 130] were 11 nM and 6.91 nM.
The matching figures for `COc1cnc(Cl)cc1-c1cc(C)ncc1C(=O)Nc1nc2ccc(N3CCc4ccccc43)nc2s1` [Example 131]: 736 nM and 149 nM.
The matching figures for `COc1cnc(Cl)cc1-c1cc(C)ncc1C(=O)Nc1nc2ccc(N3CCc4ccccc4C3)nc2s1` [Example 132]: 158 nM and 163 nM.
Regarding `COc1cnc(Cl)cc1-c1cc(C)ncc1C(=O)Nc1nc2ncc(N3CC4(CC(O)C4)C3)nc2s1` [Example 133], the results for the 50% inhibitory concentration (IC50) in assay [1] (setting [3]) and in assay [2] (setting [4]) were 26.1 nM and 6.92 nM, respectively.
